Experiments:
Experiment in all cases: relative viability (nuclei count vs DMSO), 5 days (fraction); higher = more cells survive
[1] = tested on: NCI-H2405
Outline: (§1)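 Lung cancer cell lines were pin-tool dosed in 1536-well plates on the day after seeding, with either a lone drug or a fixed anchor-drug dose plus five library-drug doses (not always all listed) in √10 steps. Nuclei were counted on 4× images after 5 days. Relative viability is the ratio of treated-well to vehicle-well nuclei counts, with each value a median of duplicate plates.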

[2] = tested on: COR-L23
Outline: as §1

[3] = tested on: NCI-H2023
Outline: as §1

[4] = tested on: NCI-H2126
Outline: as §1

[5] = tested on: NCI-H838
Outline: as §1

[6] = tested on: NCI-H1395
Outline: as §1

[7] = tested on: HARA
Outline: as §1

[8] = tested on: HCC-15
Outline: as §1

[9] = tested on: HOP-62
Outline: as §1

[10] = tested on: NCI-H1793
Outline: as §1

[11] = tested on: EMC-BAC-2
Outline: as §1

[12] = tested on: HCC-78
Outline: as §1

[13] = tested on: SK-LU-1
Outline: as §1

[14] = tested on: NCI-H1944
Outline: as §1

[15] = tested on: LC-2-ad
Outline: as §1

[16] = tested on: NCI-H23
Outline: as §1

[17] = tested on: HCC-366
Outline: as §1

[18] = tested on: NCI-H358
Outline: as §1

[19] = tested on: NCI-H1993
Outline: as §1

[20] = tested on: NCI-H2228
Outline: as §1

[21] = tested on: ChaGo-K-1
Outline: as §1

For COc1cc2nccc(Oc3ccc(NC(=O)Nc4cc(C)on4)c(Cl)c3)c2cc1OC [Tivozanib] + CC(=O)Nc1cccc(-n2c(=O)n(C3CC3)c(=O)c3c(Nc4ccc(I)cc4F)n(C)c(=O)c(C)c32)c1 [Trametinib] (partner 0.02 µM), the relative viability ([1]; first compound 0.005 µM) was 0.543, the relative viability ([1]; first compound 0.01581 µM) was 0.664 and the relative viability ([1]; first compound 0.05 µM) was 0.607. For the same molecule, the relative viability ([1]; first compound 0.1581 µM) was 0.499, the relative viability ([1]; first compound 0.5 µM) was 0.554 and the relative viability ([2]; first compound 0.005 µM) was 0.542. The relative viability ([2]; first compound 0.01581 µM) was 0.577, the relative viability ([2]; first compound 0.05 µM) was 0.588 and the relative viability ([2]; first compound 0.1581 µM) was 0.421. The relative viability ([2]; first compound 0.5 µM) was 0.545, the relative viability ([3]; first compound 0.005 µM) was 0.526 and the relative viability ([3]; first compound 0.01581 µM) was 0.603. The relative viability ([3]; first compound 0.05 µM) was 0.606, the relative viability ([3]; first compound 0.1581 µM) was 0.61 and the relative viability ([3]; first compound 0.5 µM) was 0.498. The relative viability ([4]; first compound 0.005 µM) was 0.595, the relative viability ([4]; first compound 0.01581 µM) was 0.556 and the relative viability ([4]; first compound 0.05 µM) was 0.567. The relative viability ([4]; first compound 0.1581 µM) was 0.444, the relative viability ([4]; first compound 0.5 µM) was 0.555 and the relative viability ([5]; first compound 0.005 µM) was 0.514. It also gave a relative viability ([5]; first compound 0.01581 µM) of 0.555, a relative viability ([5]; first compound 0.05 µM) of 0.552 and a relative viability ([5]; first compound 0.1581 µM) of 0.34. For the same molecule, the relative viability ([5]; first compound 0.5 µM) was 0.504, the relative viability ([6]; first compound 0.005 µM) was 0.992 and the relative viability ([6]; first compound 0.01581 µM) was 0.961. For the same molecule, the relative viability ([6]; first compound 0.05 µM) was 1.17, the relative viability ([6]; first compound 0.1581 µM) was 0.952 and the relative viability ([6]; first compound 0.5 µM) was 0.938. The relative viability ([7]; first compound 0.005 µM) was 0.628, the relative viability ([7]; first compound 0.01581 µM) was 0.817 and the relative viability ([7]; first compound 0.05 µM) was 0.615. For the same molecule, the relative viability ([7]; first compound 0.1581 µM) was 1.06, the relative viability ([7]; first compound 0.5 µM) was 0.744 and the relative viability ([8]; first compound 0.005 µM) was 0.391. The relative viability ([8]; first compound 0.01581 µM) was 0.365, the relative viability ([8]; first compound 0.05 µM) was 0.364 and the relative viability ([8]; first compound 0.1581 µM) was 0.422. The relative viability ([8]; first compound 0.5 µM) was 0.395, the relative viability ([9]; first compound 0.005 µM) was 0.343 and the relative viability ([9]; first compound 0.01581 µM) was 0.398. It also gave a relative viability ([9]; first compound 0.05 µM) of 0.439, a relative viability ([9]; first compound 0.1581 µM) of 0.377 and a relative viability ([9]; first compound 0.5 µM) of 0.502. For the same molecule, the relative viability ([10]; first compound 0.005 µM) was 0.305, the relative viability ([10]; first compound 0.01581 µM) was 0.457 and the relative viability ([10]; first compound 0.05 µM) was 0.471. The relative viability ([10]; first compound 0.5 µM) was 0.445, the relative viability ([11]; first compound 0.005 µM) was 0.886 and the relative viability ([11]; first compound 0.01581 µM) was 0.844. It also gave a relative viability ([11]; first compound 0.05 µM) of 0.905, a relative viability ([11]; first compound 0.1581 µM) of 0.827 and a relative viability ([11]; first compound 0.5 µM) of 0.952. The relative viability ([12]; first compound 0.005 µM) was 0.788, the relative viability ([12]; first compound 0.01581 µM) was 0.828 and the relative viability ([12]; first compound 0.05 µM) was 0.711. The relative viability ([12]; first compound 0.1581 µM) was 0.859, the relative viability ([12]; first compound 0.5 µM) was 0.537 and the relative viability ([13]; first compound 0.005 µM) was 0.508. It also gave a relative viability ([13]; first compound 0.01581 µM) of 0.498, a relative viability ([13]; first compound 0.05 µM) of 0.594 and a relative viability ([13]; first compound 0.1581 µM) of 0.3. It also gave a relative viability ([13]; first compound 0.5 µM) of 0.503, a relative viability ([14]; first compound 0.005 µM) of 0.344 and a relative viability ([14]; first compound 0.01581 µM) of 0.453. For the same molecule, the relative viability ([14]; first compound 0.05 µM) was 0.399, the relative viability ([14]; first compound 0.1581 µM) was 0.423 and the relative viability ([14]; first compound 0.5 µM) was 0.455. For the same molecule, the relative viability ([15]; first compound 0.005 µM) was 0.91, the relative viability ([15]; first compound 0.01581 µM) was 0.849 and the relative viability ([15]; first compound 0.05 µM) was 0.888. It also gave a relative viability ([15]; first compound 0.1581 µM) of 0.601, a relative viability ([15]; first compound 0.5 µM) of 0.497 and a relative viability ([16]; first compound 0.005 µM) of 0.363. It also gave a relative viability ([16]; first compound 0.01581 µM) of 0.364, a relative viability ([16]; first compound 0.05 µM) of 0.383 and a relative viability ([16]; first compound 0.5 µM) of 0.373. It also gave a relative viability ([17]; first compound 0.005 µM) of 0.363, a relative viability ([17]; first compound 0.01581 µM) of 0.349 and a relative viability ([17]; first compound 0.05 µM) of 0.341. For the same molecule, the relative viability ([17]; first compound 0.1581 µM) was 0.323, the relative viability ([17]; first compound 0.5 µM) was 0.426 and the relative viability ([18]; first compound 0.005 µM) was 0.124. The relative viability ([18]; first compound 0.01581 µM) was 0.153, the relative viability ([18]; first compound 0.05 µM) was 0.161 and the relative viability ([18]; first compound 0.1581 µM) was 0.108. It also gave a relative viability ([18]; first compound 0.5 µM) of 0.144, a relative viability ([19]; first compound 0.005 µM) of 0.562 and a relative viability ([19]; first compound 0.01581 µM) of 0.354. For the same molecule, the relative viability ([19]; first compound 0.05 µM) was 0.625, the relative viability ([19]; first compound 0.1581 µM) was 0.63 and the relative viability ([19]; first compound 0.5 µM) was 0.502. For the same molecule, the relative viability ([20]; first compound 0.005 µM) was 0.55, the relative viability ([20]; first compound 0.01581 µM) was 0.595 and the relative viability ([20]; first compound 0.05 µM) was 0.514. The relative viability ([20]; first compound 0.1581 µM) was 0.249, the relative viability ([20]; first compound 0.5 µM) was 0.539 and the relative viability ([21]; first compound 0.005 µM) was 0.853. It also gave a relative viability ([21]; first compound 0.01581 µM) of 0.89, a relative viability ([21]; first compound 0.05 µM) of 0.875 and a relative viability ([21]; first compound 0.1581 µM) of 0.859. It also gave a relative viability ([21]; first compound 0.5 µM) of 0.868.

From the supplement of paper PMC10307832
